Data as given in US20080206332A1, “SUSTAINED RELEASE ORAL DOSAGE FORMS OF A PRODRUG OF R-BACLOFEN AND METHODS OF TREATMENT” (priority 2007, published 2008).

Tests used:
[1] = in vivo; cited from earlier work
[2] = dosed either orally or directly into the colon of a mammal; cited from earlier work
[3] = clinical trials (Castell et al.); cited from earlier work
[4] = 2 mg t.i.d. R-baclofen equivalent to racemic baclofen 10 mg t.i.d.; cited from earlier work
[5] = Pharmacokinetics of R-baclofen in dogs after oral dosage forms of compound (1); parameters: species or system Beagle dogs; details: dog, in vivo, iv, 10 mg-eq/kg R-baclofen administered intravenously
Experimental: The dogs were fasted overnight before the study and for 4 hours post-dosing. Blood samples (1 mL) were obtained via the femoral vein at intervals over 24 hours after oral dosing. Blood was quenched immediately using acetonitrile with 1% formic acid and then frozen at −20° C. until analyzed.
The concentration of R-baclofen in quenched whole blood was determined using an API 2000 LC/MS/MS instrument equipped with a Shimadzu binary pump and a Leap CTC autosampler. A Phenomenex Hydro-RP 4.6×50 mm column operating at room temperature was used. The mobile phases were (A) water with 0.1% formic acid, and (B) acetonitrile with 0.1% formic acid. The gradient condition was: 5% B for 0.5 min, then to 95% B in 1.8 min; then maintained at 95% B for 1.2 min. The mobile phase was then returned to 5% B for 2 min. A TurbolonSpray source was used on the API 2000. The analysis was done in positive ion mode and an MRM transition of m/z 214/151 was used in the analysis of R-baclofen. Ten (10) μL of the blood sample was injected. The peaks were integrated using Analyst™ Software ([…]) to provide the concentration of R-baclofen in the blood sample.
Pharmacokinetic profiles of sustained release oral dosage forms prepared according to Examples 1-4 at a dose of 10 mg compound (1) following oral administration to dogs is shown in FIG. 5.

## NCC(CC(=O)O)c1ccc(Cl)cc1 (racemic) [baclofen, (±)-4-Amino-3-(4-chlorophenyl)butanoic acid]
[1]
  elimination half-life: 3 to 4 h

## CC(C)C(=O)O[C@@H](OC(=O)NC[C@H](CC(=O)O)c1ccc(Cl)cc1)C(C)C [Compound (1), (3R)-4-{[(1S)-2-methyl-1-(2-methylpropanoyloxy)propoxy]carbonylamino}-3-(4-chlorophenyl)butanoic acid]
[2]
  bioavailability as R-baclofen: high bioavailability
[3]
  reflux episodes in clinical trials: reduce reflux episodes

## NC[C@H](CC(=O)O)c1ccc(Cl)cc1 [R-baclofen, R-(−)-baclofen]
[4]
  potency of orally administered R-baclofen relative to orally administered racemic baclofen: about 5 times
[5]
  AUC(0-inf): 1980 ng·h/mL
